Results published in publication PMC6546875, “Efficacy of Antimicrobial Peptide DP7, Designed by Machine-Learning Method, Against Methicillin-Resistant Staphylococcus aureus” (Frontiers in Microbiology, 2019).
≈ marks a conversion by molar mass, not a printed value. Where “and” joins values, the source holds several entries; their conditions need not be identical. Identical values can stand only once. Counter-ions that a name gives are not always drawn. Like-named read-outs stand apart in the source and are kept apart here. Marks after values point to notes of the source that are not given here. No end group written: not given here.

Experiments:
S. aureus DP7-R = assay type: cell-based, Staphylococcus aureus; details: change from 1× MIC (ATCC 25923) to n× MIC (DP7-R)
Method: Subsequently, the bacterial samples were counted at different time points (0, 1, 2, 4, 6, 8, 18, and 24 h).
For every 48 h, we transferred 2% of each culture to new flasks containing fresh medium with a twofold higher DP7 concentration. […] Aliquots from each population were stored in 20% glycerol at -80°C.

S. aureus ATCC 25923 [1] = tested on: S. aureus ATCC 25923
S. aureus ATCC 33591 [2] = assay type: cell-based, Staphylococcus aureus; details: ATCC 33591, 22 h
Method: (§1) The susceptibility testing methods were performed as previously described ([Wiegand et al., 2008]). […] The minimum bactericidal concentration (MBC) endpoint is the lowest concentration of antibacterial agent that kills > 99.9% of the initial bacterial population where no visible growth of bacteria was observed on nutrient agar plates. […] Subsequently, the bacterial samples were counted at different time points (0, 1, 2, 4, 6, 8, 18, and 24 h).

S. aureus ATCC 25923 [3] = test: microbe, parasite or virus in culture; details: Staphylococcus aureus, ATCC25923, 22 h, read-out: MIC for ATCC 25923
S. aureus ATCC 33591 [4] = details: superscript b; ref Shen et al., 2012; cited from earlier work
S. aureus ATCC 25923 [5] = details: superscript b; ref Shen et al., 2012; cited from earlier work
From the text: Table 1 MIC of various AMPs against S. aureus. | column: MIC for ATCC 25923 (mg/L) || Here, the antimicrobial peptide (AMP) DP7, a short 12 amino acid AMP with broad-spectrum antibacterial activities, was chosen to analyze its potential mechanisms for killing S. aureus.

S. aureus = test: In vitro time-killing assay; assay type: cell-based, Staphylococcus aureus; details: Figure 1; S. aureus ATCC 25923 and ATCC 33591
MRSA strain ATCC 33591 = test: Murine model of MRSA blood stream infection; assay type: in vivo, C57 female mice; details: 10 mg/kg i.v., 72 h, vs PBS-treated mice, n = 5
Method: A well-characterized murine model of blood stream infection was employed to study the pharmacodynamics profiles of DP7 and compare them with those of vancomycin. Briefly, C57 female mice (body weight 17 g ± 1 g), purchased from Hua Fu Kang Biological Technology Co., Ltd (Beijing, China), were intravenously infected with 1 × 10^8 CFU/100 μL of MRSA strain ATCC 33591 in the logarithmic growth phase (recovery on defibrinated sheep blood agar, Oxoid, United Kingdom). One hour after infection, the mice were treated with various doses of DP7 (0.5, 1, and 2 mg/kg), while the mice in the control group were injected with the same volume of saline. Vancomycin at 10 mg/kg was used as the positive control. Survival and weight changes were observed every 24 h for 1 week. At 24 and 72 h, organs, including the heart, liver, spleen, lung, kidney, and blood were collected and the bacterial load was counted for each murine. At 72 h, the liver, spleen, lungs, and kidneys were fixed with 4% paraformaldehyde for 1 week, sectioned at 4 μm after processing for paraffin embedding, and then stained with hematoxylin and eosin (H&E). All animal procedures were approved and controlled by the Institutional Animal Care and Treatment Committee of Sichuan University and conducted according to the Animal Care and Use Guidelines of Sichuan University.

E. coli (ATCC 25922) = assay type: cell-based, Escherichia coli; details: ATCC 25922, 22 h
Method: as §1

P. aeruginosa (PAO1) = assay type: cell-based, Pseudomonas aeruginosa; details: PAO1, 22 h
Method: as §1

VQLRIRVCVIRK [DP10]
MIC for DP7-R as multiple of the MIC for ATCC 25923 (S. aureus DP7-R): 4 × MIC | MIC for ATCC 25923 (S. aureus ATCC 25923 [1]; logarithmic growth-phase bacteria, 37°C, 22 h, OD600): 64 mg/L

VQLRIRVAVIRA [HH2]
MIC for ATCC 33591 (S. aureus ATCC 33591 [2]): 64^a mg/L | MIC for ATCC 25923 (S. aureus ATCC 25923 [1]; ATCC 25923, 22 h): 64 mg/L

VQLRIRVCVIRK [DP8]
MIC for DP7-R as multiple of the MIC for ATCC 25923 (S. aureus DP7-R): 4 × MIC | MIC for ATCC 25923 (S. aureus ATCC 25923 [1]; ATCC 25923, 22 h): 16 mg/L

RLARIVVIRVAR [Bac2A]
MIC for ATCC 33591 (S. aureus ATCC 33591 [2]): 43.7^a mg/L

CC[C@H]1OC(=O)[C@H](C)[C@@H](O[C@H]2C[C@@](C)(OC)[C@@H](O)[C@H](C)O2)[C@H](C)[C@@H](O[C@@H]2O[C@H](C)C[C@H](N(C)C)[C@H]2O)[C@](C)(O)C[C@@H](C)CN(C)[C@H](C)[C@@H](O)[C@]1(C)O [azithromycin]
MIC for DP7-R as multiple of the MIC for ATCC 25923 (S. aureus DP7-R): 1 × MIC | MIC (S. aureus ATCC 25923 [3]): 0.125 µg/mL (≈ 0.167 µM)

LLGDFFRKSKEKIGKEFKRI VQRIKDFLRNLVPRTES [LL-37, antimicrobial peptide, 37 amino acids]
MIC for ATCC 33591 (S. aureus ATCC 33591 [4]): 28^b mg/L | MIC for ATCC 25923 (S. aureus ATCC 25923 [5]): 14 mg/L and 14^b mg/L

CNC(C)C1CCC(N)C(OC2C(N)CC(N)C(OC3OCC(C)(O)C(NC)C3O)C2O)O1 (stereo not shown) [gentamicin]
MIC for DP7-R as multiple of the MIC for ATCC 25923 (S. aureus DP7-R): 4 × MIC | MIC use here (time-killing curves) (S. aureus): 0.125 µg/mL (≈ 0.262 µM) | MIC (S. aureus ATCC 25923 [3]): 0.0625 µg/mL (≈ 0.131 µM)

CN[C@H](CC(C)C)C(=O)N[C@H]1C(=O)N[C@@H](CC(N)=O)C(=O)N[C@H]2C(=O)N[C@H]3C(=O)N[C@H](C(=O)N[C@H](C(=O)O)c4cc(O)cc(O)c4-c4cc3ccc4O)[C@H](O)c3ccc(c(Cl)c3)Oc3cc2cc(c3O[C@@H]2O[C@H](CO)[C@@H](O)[C@H](O)[C@H]2O[C@H]2C[C@](C)(N)[C@H](O)[C@H](C)O2)Oc2ccc(cc2Cl)[C@H]1O [vancomycin]
MIC for DP7-R as multiple of the MIC for ATCC 25923 (S. aureus DP7-R): 1 × MIC | MIC use here (time-killing curves) (S. aureus): 0.25 µg/mL (≈ 0.173 µM) | bacterial load in heart, liver, spleen, lung, kidney and blood (MRSA strain ATCC 33591): statistically significant reductions | MIC (S. aureus ATCC 25923 [3]): 0.25 µg/mL (≈ 0.173 µM)

CC1COc2c(N3CCN(C)CC3)c(F)cc3c(=O)c(C(=O)O)cn1c23 (stereo not shown) [ofloxacin]
MIC for DP7-R as multiple of the MIC for ATCC 25923 (S. aureus DP7-R): 2 × MIC | MIC (S. aureus ATCC 25923 [3]): 0.25 µg/mL (≈ 0.692 µM)

COc1c(N2C[C@@H]3CCCN[C@@H]3C2)c(F)cc2c(=O)c(C(=O)O)cn(C3CC3)c12 [moxifloxacin hydrochloride]
MIC for DP7-R as multiple of the MIC for ATCC 25923 (S. aureus DP7-R): 1 × MIC | MIC (S. aureus ATCC 25923 [3]): 0.125 µg/mL

CO[C@H]1/C=C/O[C@@]2(C)Oc3c(C)c(O)c4c(O)c(c(/C=N/N5CCN(C)CC5)c(O)c4c3C2=O)NC(=O)/C(C)=C\C=C\[C@H](C)[C@H](O)[C@@H](C)[C@@H](O)[C@@H](C)[C@H](OC(C)=O)[C@@H]1C [rifampicin]
MIC for DP7-R as multiple of the MIC for ATCC 25923 (S. aureus DP7-R): 1 × MIC

CCn1cc(C(=O)O)c(=O)c2cc(F)c(N3CCNCC3)cc21 [noroxin, norfloxacin]
MIC for DP7-R as multiple of the MIC for ATCC 25923 (S. aureus DP7-R): 2 × MIC | MIC use here (time-killing curves) (S. aureus): 1 µg/mL (≈ 3.13 µM) | MIC (S. aureus ATCC 25923 [3]): 1 µg/mL (≈ 3.13 µM)

VQWRIRVAVIRK [DP7]
MBC (E. coli (ATCC 25922)): 64 µg/mL | MIC (E. coli (ATCC 25922)): 16 µg/mL | MBC (S. aureus ATCC 33591 [2]): 64 µg/mL | MIC for ATCC 33591 (S. aureus ATCC 33591 [2]): 16^a mg/L | MBC (P. aeruginosa (PAO1)): 64 µg/mL | MIC (P. aeruginosa (PAO1)): 16 µg/mL | MBC (S. aureus ATCC 25923 [1]; ATCC 25923, 22 h): 64 µg/mL | MIC for ATCC 25923 (S. aureus ATCC 25923 [1]; ATCC 25923, 22 h): 16^a mg/L
